Test results from US20260224716A1, “PTH ANALOGS FOR THE TREATMENT OF HYPOPARATHYROIDISM” (priority 2020, published 2026).

Assays:
[1] = Pharmacokinetics of SEQ ID 87 in monkeys, single subcutaneous dose (Example 17); format: in vivo, cynomolgus monkeys; details: FIGS. 26A, 26B
Procedure: A total of three monkeys were used at each test dose. The monkeys ranged in age from 2-4 years old at beginning of the study and having a weight of at least 2.5 kg. The dose volume was 0.3 mL/kg. Individual dose volumes were calculated based on the animals' most recently recorded body weight.
Animals were not fasted prior to collection. Blood was be collected via the femoral vein (or another appropriate site). Blood samples were maintained at 5±3° C. (wet ice or equivalent) and centrifuged at 5±3° C. within 1 hour of the collection of each blood sample. The resultant plasma was transferred to a tube and then stored under conditions set to maintain −75±15° C. until analysis.
Pharmacokinetic mean concentration-time data was analyzed using non-compartmental methods (Phoenix® WinNonlin® Version 7.0 or higher) based on the route of administration. The following parameters were calculated whenever possible and as data allows: Cmax, Tmax, and AUC. Descriptive statistics were generated using Phoenix WinNonlin.

[2] = biological target: T1, PTHR1 (Homo sapiens, UniProt Q03431); test: cAMP Hunter Teriparatide Bioassay (CHO-K1 PTHR1 cells); format: cell-based
T1 construct: host or cells: CHO-K1
T1 sequence (Q03431 27-593): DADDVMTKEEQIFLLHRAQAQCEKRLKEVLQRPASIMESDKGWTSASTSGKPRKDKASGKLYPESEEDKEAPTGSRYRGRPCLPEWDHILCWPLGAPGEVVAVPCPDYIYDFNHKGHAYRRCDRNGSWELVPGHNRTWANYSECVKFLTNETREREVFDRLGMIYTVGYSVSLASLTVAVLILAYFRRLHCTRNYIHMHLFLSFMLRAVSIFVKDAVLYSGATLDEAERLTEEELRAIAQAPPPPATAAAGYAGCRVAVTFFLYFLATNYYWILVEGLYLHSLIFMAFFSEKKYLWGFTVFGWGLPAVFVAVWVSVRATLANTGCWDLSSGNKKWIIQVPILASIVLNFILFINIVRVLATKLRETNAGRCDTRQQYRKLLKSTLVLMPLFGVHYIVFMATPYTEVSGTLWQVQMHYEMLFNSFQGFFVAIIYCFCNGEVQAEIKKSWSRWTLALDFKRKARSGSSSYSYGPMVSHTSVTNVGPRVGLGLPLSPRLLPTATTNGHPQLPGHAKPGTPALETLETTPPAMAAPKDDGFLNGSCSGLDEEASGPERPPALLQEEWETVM
Procedure: The assessment of the bioactivity of a prodrug relative to its drug form was conducted in a proprietary commercial assay as contracted with Eurofins-Discover Rx Corporation win a cAMP Hunter® Teriparatide Bioassay (95-0118Y2). An 11-point dose curve in agonist mode was conducted for each individual peptide or incubation condition. Every sample was run at each dose in triplicate.
An 11-point dose curve in agonist mode was conducted for each individual peptide or incubation condition. Every sample was run at each dose in triplicate.
An 11-point dose curve in agonist mode was conducted for each individual peptide at each concentration. Every sample was run at each dose in triplicate.

In the case of `CC[C@H](C)[C@H](NC(=O)[C@H](CCC(=O)O)NC(=O)[C@H](CO)NC(=O)[C@@H](NC(=O)[C@H](CO)NC(=O)CN(C)C(=O)[C@H](N)CCCCNC(=O)CC[C@H](NC(=O)COCCOCCNC(=O)COCCOCCNC(=O)CC[C@H](NC(=O)CCCCCCCCCCCCCCCCC(=O)O)C(=O)O)C(=O)O)C(C)C)C(=O)N[C@@H](CCC(N)=O)C(=O)N[C@@H](CC(C)C)C(=O)N[C@@H](CCSC)C(=O)N[C@@H](Cc1c[nH]cn1)C(=O)N[C@@H](CC(N)=O)C(=O)N[C@@H](CC(C)C)C(=O)NCC(=O)N[C@@H](CCCCN)C(=O)N[C@@H](Cc1c[nH]cn1)C(=O)N[C@@H](CC(C)C)C(=O)N[C@@H](CC(N)=O)C(=O)N[C@@H](CO)C(=O)N[C@@H](CCSC)C(=O)N[C@@H](CCC(=O)O)C(=O)N[C@@H](CCCNC(=N)N)C(=O)N[C@H](C(=O)N[C@@H](CCC(=O)O)C(=O)N[C@@H](Cc1c[nH]c2ccccc12)C(=O)N[C@@H](CC(C)C)C(=O)N[C@@H](CCCNC(=N)N)C(=O)N[C@@H](CCCCN)C(=O)N[C@@H](CCCCN)C(=O)N[C@@H](CC(C)C)C(=O)N[C@@H](CCC(N)=O)C(=O)N[C@@H](CC(=O)O)C(=O)N[C@H](C(=O)N[C@@H](Cc1c[nH]cn1)C(=O)N[C@@H](CCCCNC(=O)CC[C@H](NC(=O)COCCOCCNC(=O)COCCOCCNC(=O)CC[C@H](NC(=O)CCCCCCCCCCCCCCCCC(=O)O)C(=O)O)C(=O)O)C(=O)O)C(C)C)C(C)C` [SEQ ID NO: 87], the “difference of prodrug to drug serum concentration” value [1] is reported as roughly 4 fold, the Hillslope ([2]; FIG. 11, prodrug incubated in PBS 1 day) is reported as 1.421 and the Hillslope ([2]; FIG. 11, prodrug incubated in PBS 2 day) is reported as 2.102. The Hillslope ([2]; FIG. 11, prodrug incubated in PBS 3 day) was 1.825, the Hillslope ([2]; FIG. 11, prodrug incubated in PBS 5 day) was 2.102 and the Hillslope ([2]; FIG. 11, prodrug incubated in PBS 8 day) was 2.172. The “PTH agonism” value ([2]; conclusions from Table 14, FIGS. 8A-8C) was “full PTH agonist of high nM potency”.
